# According to US20260191968A1, “PROTAC DEGRADERS OF MLLT1 AND/OR MLLT3” (DARK BLUE THERAPEUTICS LTD, priority 2024, published 2026):
# Experiments:
# Type in all cases: cell-based
# MLLT1 = biological target: T1, MLLT1 (Homo sapiens, UniProt Q03111); assay: MLLT1 degradation assay in MV4-11 cells (JESS chemiluminescent detection), three concentrations, 24 h; conditions: with respect to DMSO control
# T1 construct: host or cells: MV4-11
# T1 sequence (Q03111 1-559): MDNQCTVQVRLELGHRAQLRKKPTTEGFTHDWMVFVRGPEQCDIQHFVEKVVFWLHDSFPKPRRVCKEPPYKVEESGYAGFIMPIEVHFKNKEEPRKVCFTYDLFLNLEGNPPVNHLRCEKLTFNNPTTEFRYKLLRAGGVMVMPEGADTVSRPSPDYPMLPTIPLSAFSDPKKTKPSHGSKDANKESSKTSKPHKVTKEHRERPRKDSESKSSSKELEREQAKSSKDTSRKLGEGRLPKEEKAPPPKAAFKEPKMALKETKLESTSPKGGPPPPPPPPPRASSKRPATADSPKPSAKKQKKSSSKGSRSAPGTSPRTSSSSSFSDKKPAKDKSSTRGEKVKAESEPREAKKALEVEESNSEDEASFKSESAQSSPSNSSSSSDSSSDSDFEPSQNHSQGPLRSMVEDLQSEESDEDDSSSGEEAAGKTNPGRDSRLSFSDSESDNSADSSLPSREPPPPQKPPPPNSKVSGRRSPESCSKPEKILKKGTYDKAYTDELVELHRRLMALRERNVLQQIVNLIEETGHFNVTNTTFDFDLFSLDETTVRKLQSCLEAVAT
# Summary of the method: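 Read-out is % MLLT1 degradation versus DMSO, from band peak areas on a JESS chemiluminescent system. Cells (MV4-11) were exposed for 24 h at 37° C to three compound levels, 10, 100 and 1000 nM, in 0.1% DMSO.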
# MV4-11 cells [1] = assay: MV4-11 cellular proliferative assay, Assay Format A (CellTiter-Glo, 120 hours); conditions: Homo sapiens
# Description: An MV4-11 proliferation assay was used to test the ability of compounds to reduce cell viability. MV4-11 cells (ATCC #CRL9591) were grown in IMDM medium (11510596, Gibco) supplemented with 10% fetal bovine serum (F7524, Gibco) and 1% Penicillin/Streptomycin (15140-122, Gibco) at 37° C. with 5% CO2. Cells were seeded in 384-well Elplasia plates (4447, Corning) at a density of 50 cells/well and treated with vehicle (DMSO) or compounds (10 serial semi-log dilutions, 30 μM as top concentration).
# After 120 hours of treatment, cells were incubated for 10 min at RT with the CellTiter-Glo (CTG) reagent (G7571, Promega). Measurement of the luminescence signal was performed on a microplate reader (Ensight, PerkinElmer). CTG reagent measures the amount of ATP, which is directly proportional to the number of cells, to determine the number of viable cells in culture.
# The data were analysed as follows:
# where x is the measured raw signal value of a well, (cr) is the median of the measured signal values for the Central Reference (DMSO) wells on a plate, (sr) is the median of the measured signal values for the Scale Reference (reference compound) wells on a plate.
# where the experimental set-up assumes the Hill parameters in certain ranges: S0~Central Reference (CR) from normalization (=Bottom), Sinf~Scale Reference (SR) from normalization (=Top), nHill~1, AC50~within the measured concentration range.
# MV4-11 cells [2] = assay: MV4-11 cellular proliferative assay, Assay Format B (CTG 2.0, 168 h); conditions: Homo sapiens, 168 h (7 days), CTG 2.0, read-out: IC50 (MV4-11 cellular proliferative assay, Assay format B)
# Summary of the method: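 Viability read by CellTiter-Glo 2.0 luminescence after 7-day (168 h) compound exposure of MV4-11 cells in IMDM/10% FBS. Ten 3-fold concentrations starting at 1 uM or 100 nM, 0.3% final DMSO; curves normalised to DMSO control, four-parameter fit.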
MLLT1% Degradation @ 0.01 μM (MLLT1),MLLT1% Degradation @ 0.1 μM (MLLT1),MLLT1% Degradation @ 1 μM (MLLT1),IC50 (MV4-11 cells [1]) [nM],IC50 (MV4-11 cells [2]) [nM],Compound
A (Category A: A ≥ 75% degradation),A (Category A: A ≥ 75% degradation),A (Category A: A ≥ 75% degradation),–,≤ 100,"CN1CCC[C@@H]1c1cc2cnc(NC(=O)c3ccc(-c4cnn(CCCC5CCN(c6cccc7c6C(=O)N(C6CCC(=O)NC6=O)C7=O)CC5)c4)cn3)cc2[nH]1 (stereo partly drawn) [Example 211, 5-(1-(3-(1-(2-(2,6-dioxopiperidin-3-yl)-1,3-dioxoisoindolin-4-yl)piperidin-4-yl)propyl)-1H-pyrazol-4-yl)-N-(2-((R)-1-methylpyrrolidin-2-yl)-1H-pyrrolo[3,2-c]pyridin-6-yl)picolinamide]"
A (Category A: A ≥ 75% degradation),A (Category A: A ≥ 75% degradation),A (Category A: A ≥ 75% degradation),–,≤ 100,"CN1CCC[C@@H]1c1cc2cnc(NC(=O)c3ccc(-c4cnn(CCCC5CCN(c6cccc7c6CN(C6CCC(=O)NC6=O)C7=O)CC5)c4)cc3F)cc2[nH]1 (stereo partly drawn) [Example 212, 4-(1-(3-(1-(2-(2,6-dioxopiperidin-3-yl)-1-oxoisoindolin-4-yl)piperidin-4-yl)propyl)-1H-pyrazol-4-yl)-2-fluoro-N-(2-((R)-1-methylpyrrolidin-2-yl)-1H-pyrrolo[3,2-c]pyridin-6-yl)benzamide]"
A (Category A: A ≥ 75% degradation),A (Category A: A ≥ 75% degradation),A (Category A: A ≥ 75% degradation),–,≤ 100,"CN1CCC[C@@H]1c1cc2cnc(NC(=O)c3ccc(OCCCC#Cc4cccc5c4CN(C4CCC(=O)NC4=O)C5=O)cc3F)cc2[nH]1 (stereo partly drawn) [Example 213, 4-((5-(2-(2,6-dioxopiperidin-3-yl)-1-oxoisoindolin-4-yl)pent-4-yn-1-yl)oxy)-2-fluoro-N-(2-((R)-1-methylpyrrolidin-2-yl)-1H-pyrrolo[3,2-c]pyridin-6-yl)benzamide]"
A (Category A: A ≥ 75% degradation),A (Category A: A ≥ 75% degradation),A (Category A: A ≥ 75% degradation),–,≤ 100,"CN1CCC[C@@H]1c1cc2cnc(NC(=O)c3ccc(OCCC4CCN(c5cccc6c5CN(C5CCC(=O)NC5=O)C6=O)CC4)cn3)cc2[nH]1 (stereo partly drawn) [Example 216, 5-(2-(1-(2-(2,6-dioxopiperidin-3-yl)-1-oxoisoindolin-4-yl)piperidin-4-yl)ethoxy)-N-(2-((R)-1-methylpyrrolidin-2-yl)-1H-pyrrolo[3,2-c]pyridin-6-yl)picolinamide]"
A (Category A: A ≥ 75% degradation),A (Category A: A ≥ 75% degradation),A (Category A: A ≥ 75% degradation),–,≤ 100,"CN1CCC[C@@H]1c1cc2cnc(NC(=O)c3cc(F)c(OCCC4CCN(c5cccc6c5CN(C5CCC(=O)NC5=O)C6=O)CC4)cc3F)cc2[nH]1 (stereo partly drawn) [Example 230, 4-(2-(1-(2-(2,6-dioxopiperidin-3-yl)-1-oxoisoindolin-4-yl)piperidin-4-yl)ethoxy)-2,5-difluoro-N-(2-((R)-1-methylpyrrolidin-2-yl)-1H-pyrrolo[3,2-c]pyridin-6-yl)benzamide]"
A (Category A: A ≥ 75% degradation),A (Category A: A ≥ 75% degradation),A (Category A: A ≥ 75% degradation),–,≤ 100,"CN1CCC[C@@H]1c1cc2cnc(NC(=O)c3ccc(OCCC4CCN(c5cccc6c5CN(C5CCC(=O)NC5=O)C6=O)CC4)c(F)c3F)cc2[nH]1 (stereo partly drawn) [Example 231, 4-(2-(1-(2-(2,6-dioxopiperidin-3-yl)-1-oxoisoindolin-4-yl)piperidin-4-yl)ethoxy)-2,3-difluoro-N-(2-((R)-1-methylpyrrolidin-2-yl)-1H-pyrrolo[3,2-c]pyridin-6-yl)benzamide]"

# Continued, molecule first:
Compound,MLLT1% Degradation @ 0.01 μM (MLLT1),MLLT1% Degradation @ 0.1 μM (MLLT1),MLLT1% Degradation @ 1 μM (MLLT1),IC50 (MV4-11 cells [1]) [nM],IC50 (MV4-11 cells [2]) [nM]
"CN1CCC[C@@H]1c1cc2cnc(NC(=O)c3ccc(-c4ccn(CCCC#Cc5cccc6c5CN(C5CCC(=O)NC5=O)C6=O)n4)cc3)cc2[nH]1 (mixture of isomers) [Example 20, 4-(1-(5-(2-(2,6-dioxopiperidin-3-yl)-1-oxoisoindolin-4-yl)pent-4-yn-1-yl)-1H-pyrazol-3-yl)-N-(2-((R)-1-methylpyrrolidin-2-yl)-1H-pyrrolo[3,2-c]pyridin-6-yl)benzamide]",B (Category B: 50% ≤ B < 75% degradation),B (Category B: 50% ≤ B < 75% degradation),C (Category C: 25% ≤ C < 50% degradation),≤ 100,–
"CN1CCC[C@@H]1c1cc2cnc(NC(=O)c3ccc(CC4CCN(c5cccc6c5C(=O)N(C5CCC(=O)NC5=O)C6=O)CC4)cc3)cc2[nH]1 (stereo partly drawn) [Example 3, 4-((1-(2-(2,6-dioxopiperidin-3-yl)-1,3-dioxoisoindolin-4-yl)piperidin-4-yl)methyl)-N-(2-((R)-1-methylpyrrolidin-2-yl)-1H-pyrrolo[3,2-c]pyridin-6-yl)benzamide]",C (Category C: 25% ≤ C < 50% degradation),A (Category A: A ≥ 75% degradation),A (Category A: A ≥ 75% degradation),≤ 100,–
"CN1CCC[C@@H]1c1cc2cnc(NC(=O)CCCC3CN(c4cccc5c4C(=O)N(C4CCC(=O)NC4=O)C5=O)C3)cc2[nH]1 (stereo partly drawn) [Example 48, 4-(1-(2-(2,6-dioxopiperidin-3-yl)-1,3-dioxoisoindolin-4-yl)azetidin-3-yl)-N-(2-((R)-1-methylpyrrolidin-2-yl)-1H-pyrrolo[3,2-c]pyridin-6-yl)butanamide]",–,–,–,≤ 100,–
"CN1CCC[C@@H]1c1cc2cnc(NC(=O)c3ccc(OCCc4ccc(-c5cccc6c5CN(C5CCC(=O)NC5=O)C6=O)cc4)cc3F)cc2[nH]1 (stereo partly drawn) [Example 207, 4-(4-(2-(2,6-dioxopiperidin-3-yl)-1-oxoisoindolin-4-yl)phenethoxy)-2-fluoro-N-(2-((R)-1-methylpyrrolidin-2-yl)-1H-pyrrolo[3,2-c]pyridin-6-yl)benzamide]",A (Category A: A ≥ 75% degradation),A (Category A: A ≥ 75% degradation),A (Category A: A ≥ 75% degradation),–,≤ 100
"CN1CCC[C@@H]1c1cc2cnc(NC(=O)c3ccc(OCCCC4CCN(c5cccc6c5CN(C5CCC(=O)NC5=O)C6=O)CC4)cc3F)cc2[nH]1 (stereo partly drawn) [Example 209, 4-(3-(1-(2-(2,6-dioxopiperidin-3-yl)-1-oxoisoindolin-4-yl)piperidin-4-yl)propoxy)-2-fluoro-N-(2-((R)-1-methylpyrrolidin-2-yl)-1H-pyrrolo[3,2-c]pyridin-6-yl)benzamide]",A (Category A: A ≥ 75% degradation),A (Category A: A ≥ 75% degradation),A (Category A: A ≥ 75% degradation),–,≤ 100
"CN1CCC[C@@H]1c1cc2cnc(NC(=O)c3ccc(-c4cnn(CCCC5CCN(c6cccc7c6C(=O)N(C6CCC(=O)NC6=O)C7=O)CC5)c4)cc3F)cc2[nH]1 (stereo partly drawn) [Example 210, 4-(1-(3-(1-(2-(2,6-dioxopiperidin-3-yl)-1,3-dioxoisoindolin-4-yl)piperidin-4-yl)propyl)-1H-pyrazol-4-yl)-2-fluoro-N-(2-((R)-1-methylpyrrolidin-2-yl)-1H-pyrrolo[3,2-c]pyridin-6-yl)benzamide]",B (Category B: 50% ≤ B < 75% degradation),A (Category A: A ≥ 75% degradation),A (Category A: A ≥ 75% degradation),–,≤ 100
